Laboratory results: patent US20250213592A1, “PHARMACEUTICAL COMPOSITION COMPRISING CURCUMIN AND GINSENOSIDE, AND FORMULATION THEREOF” (CORESTEMCHEMON INC., priority 2022, published 2025)

Columns and labels:
SNU-C1 [1] = assay: Cell mobility (transwell) of irradiated SNU-C1 cells; format: cell-based, human; conditions: SNU-C1, 10 Gy, 10 μM, 24 hours
Method: (§1) Cell mobility was measured using a 24 mm transwell with […]. After stabilizing the cells irradiated with 10 Gy of radiation for 24 hours, the cells were suspended in a medium and seeded in the upper chamber of the transwell, and the lower chamber was filled with a medium containing 10% fetal bovine serum (FBS) and 10 μM butyric acid (BA), ginsenosides Rh1, Rh2, Ro, Rb1, curcumin (CU), and sucralfate (SCF) either alone or in combination, and culturing was performed. After 24 hours of culture, the downside of the transwell was stained with crystal violet dye, and the stained cells were counted by observing them with an inverted microscope.

[2] = test system: human dermal fibroblasts (HDF); assay: Cell mobility (transwell) of irradiated human dermal fibroblasts; format: cell-based; conditions: 10 μM, alone or in combination
Method: as §1

HUVEC = assay: Vascular endothelial cell tube formation after irradiation; format: cell-based, human; conditions: irradiated HUVEC, 10 μM, alone or in combination
Method: After irradiating human umbilical endothelial cells (HUVEC) with 10 Gy of radiation, the cells were seeded on a matrigel-coated u-slide, and were treated with 10 μM of curcumin (CU), butyric acid (BA), sucralfate (SCF), ginsenosides Rh1, Rh2, Rb1, or Ro either alone or in combination.
It was investigated whether a treatment with curcumin (CU), butyric acid (BA), sucralfate (SCF), and ginsenoside Rh1 (Rh1) alone or in combination restored the function of HUVEC cells damaged by radiation.

HCT116 [3] = assay: Cell viability (Cell Counting Kit-8) of irradiated HCT116 cells; format: cell-based, human; conditions: HCT116, 10 Gy, 48 hours
Method: (§2) Human colon cancer cell lines (HCT116 and SNU-C1), a human dermal fibroblast cell line and a human keratinocyte cell line (HaCaT) were cultured in Dulbecco's modified eagles medium-high glucose (DMEM) containing 10% fetal bovine serum (FBS), 100 units/mL penicillin, and 100 μg/mL streptomycin. A Human umbilical vascular endothelial cell line (HUVEC) was cultured in a vascular cell basal medium (ATCC) containing Endothelial cell growth kit-VEGF (ATCC). All of the above cells were cultured in a 5% CO2 cell incubator at 37° C.
(§3) Cell viability test was performed using Cell Counting Kit-8. HCT116 and SNU-C1 cell lines, which are colon cancer cells, were seeded on 60 mm culture dishes and cultured, and then irradiated with 10 Gy of radiation. The cells were harvested, seeded on 96-well culture plates, and incubated, and then the cells were treated with butyric acid (BA), ginsenosides Rh1, Rh2, Ro, Rb1, and curcumin (CU) at concentrations of 5, 10, or 50 μM, respectively. After 48 hours, cell viability was analyzed using Cell Counting Kit-8 and a microplate reader.
(§4) In order to investigate the effects of curcumin (CU), butyric acid (BA), and ginsenoside on the decreased cell viability due to irradiation, HCT116 and SNU-C1 cells were treated with curcumin, butyric acid, ginsenoside Rh1, Rh2, Ro, or Rb1 at concentrations of 5, 10, and 50 μM, respectively, and the viability of each cell was measured (FIGS. 1 and 2).

HCT116 [4] = assay: Cell mobility (transwell) of irradiated HCT116 cells; format: cell-based, human; conditions: HCT116, 10 Gy, 10 μM, 24 hours
Method: as §1
The experiment was conducted using the same manner as Experimental Example 3, except that the effective agents for treatment were a combination of curcumin, butyric acid, sucralfate, and ginsenoside.

SNU-C1 [5] = assay: Cell viability (Cell Counting Kit-8) of irradiated SNU-C1 cells; format: cell-based, human; conditions: SNU-C1, 10 Gy, 48 hours
Method: as §2, §3, §4

skin of irradiated mice = conditions: cited from earlier work
[6] = test system: intestinal epithelial cells; conditions: cited from earlier work
[7] = test system: radiation proctitis model mouse; assay: Radiation proctitis model mouse: pathological morphology of colon and rectal tissue (H&E); format: in vivo; conditions: 27 Gy, intrarectal, 14 days, vs irradiated group (IR)
Method: by administration of combination drug to proctitis model mouse C57BL/6 mice (5 weeks old, female) were irradiated with 27 Gy of radiation, and then divided into test groups as shown in Table 4 and FIG. 13. From the next day, samples prepared at concentrations as shown in Table 5 and FIG. 14 (formulated using the method of Example 1) were administered intrarectally at 2-3 day intervals for a total of 6 times (FIG. 16).
The efficacy of the treated samples was confirmed 14 days after the final radiation. In this case, except for the non-irradiated group (n=5), all test treatment groups were conducted with 7 mice per group. A flexible plastic tube was inserted into the rectum for administration, and a formulation containing approximately 50 μl of the compound was administered per mouse at a time.
In addition, pathological morphological analysis of the intestinal tissue was performed by observing the morphology of each treatment group through a microscope after performing H&E staining.
Specifically, the extracted organs were fixed in 10% formalin and paraffin blocks were created (STP120 Spin tissue Processor, Myr). Thereafter, sections were mounted on slides using a microtome (Finesse ME Microtome, Thermo Shandon), dried, deparaffinized and hydrated to create tissue slides. […]

[8] = 5 μM or 10 μM, vs irradiated group

## CC(C)=CCC[C@](C)(O[C@@H]1O[C@H](CO[C@@H]2O[C@H](CO)[C@@H](O)[C@H](O)[C@H]2O)[C@@H](O)[C@H](O)[C@H]1O)[C@H]1CC[C@]2(C)[C@@H]1[C@H](O)C[C@@H]1[C@@]3(C)CC[C@H](O[C@@H]4O[C@H](CO)[C@@H](O)[C@H](O)[C@H]4O[C@@H]4O[C@H](CO)[C@@H](O)[C@H](O)[C@H]4O)C(C)(C)[C@@H]3CC[C@]12C [Rb1, ginsenoside Rb1]
SNU-C1 [1]
  cell mobility rate compared to the irradiated group: significantly increased

## CC(C)=CCC[C@](C)(O)[C@H]1CC[C@]2(C)C1[C@H](O)C[C@@H]1[C@@]3(C)CC[C@H](O)C(C)(C)[C@@H]3[C@@H](O[C@@H]3O[C@H](CO)[C@@H](O)[C@H](O)[C@H]3O)C[C@]12C (stereo partly shown) [Rh1, ginsenoside Rh1]
[2]
  Mobility rate (%), average value: 99%
HUVEC
  Tube length (%), average value: 15%

## CC(C)=CCC[C@](C)(O)[C@H]1CC[C@]2(C)[C@@H]1[C@H](O)C[C@@H]1[C@@]3(C)CC[C@H](O[C@@H]4O[C@H](CO)[C@@H](O)[C@H](O)[C@H]4O)C(C)(C)[C@@H]3CC[C@]12C [Rh2, ginsenoside Rh2]
HCT116 [3]; 50 μM
  cell viability compared to the irradiated group: lower cell viabilities than the irradiated group
HCT116 [4]
  cell mobility rate compared to the irradiated group: highest cell mobility recovery rate
SNU-C1 [5]; 50 μM
  cell viability compared to the irradiated group: lower cell viabilities than the irradiated group

## CC1(C)CC[C@]2(C(=O)O[C@@H]3O[C@H](CO)[C@@H](O)[C@H](O)[C@H]3O)CC[C@]3(C)C(=CC[C@@H]4[C@@]5(C)CC[C@H](O[C@@H]6O[C@H](C(=O)O)[C@@H](O)[C@H](O)[C@H]6O[C@@H]6O[C@H](CO)[C@@H](O)[C@H](O)[C@H]6O)C(C)(C)[C@@H]5CC[C@]43C)[C@@H]2C1 [Ro, ginsenoside Ro]
HCT116 [3]; 5 μM
  cell viability compared to the irradiated group: lower cell viabilities than the irradiated group
SNU-C1 [5]; 5 μM
  cell viability compared to the irradiated group: lower cell viabilities than the irradiated group

## CCCC(=O)O [butyric acid, Butyric acid]
[2]
  Mobility rate (%), average value: 76%
HUVEC
  Tube length (%), average value: 14%
HCT116 [4]
  cell mobility rate compared to the irradiated group: double increase

## COc1cc(/C=C/C(=O)CC(=O)/C=C/c2ccc(O)c(OC)c2)ccc1O [curcumin]
Skin of irradiated mice; irradiated mice
  skin damage: restoring skin damage
Skin of irradiated mice; skin of irradiated mice
  expression of inflammatory cytokines and fibrogenic cytokines: reducing the expression
[2]
  Mobility rate (%), average value: 130%
SNU-C1 [1]
  cell mobility rate compared to the irradiated group: significantly increased
HUVEC
  Tube length (%), average value: 15%
HCT116 [3]; [8]
  cell viability decreased by irradiation: significantly increased
HCT116 [3]; 50 μM
  cell viability compared to the irradiated group: lower cell viabilities than the irradiated group
HCT116 [4]
  cell mobility rate compared to the irradiated group: double increase
SNU-C1 [5]; [8]
  cell viability decreased by irradiation: significantly increased
SNU-C1 [5]; 50 μM
  cell viability compared to the irradiated group: lower cell viabilities than the irradiated group

## CC(C)=CCC[C@](C)(O[C@@H]1O[C@H](CO)[C@@H](O)[C@H](O)[C@H]1O)[C@H]1CC[C@]2(C)[C@@H]1[C@H](O)C[C@@H]1[C@@]3(C)CC[C@H](O[C@@H]4O[C@H](CO)[C@@H](O)[C@H](O)[C@H]4O[C@@H]4O[C@H](CO)[C@@H](O)[C@H](O)[C@H]4O)C(C)(C)[C@@H]3CC[C@]12C [ginsenoside Rd]
[6]
  apoptosis induced by irradiation: inhibit apoptosis

## Sucralfate [reference compound]
[2]
  Mobility rate (%), average value: 91%
[7]
  epithelium loss and crypt damage induced by irradiation: recovered in all sample treatment groups except the sucralfate treatment group
HUVEC
  Tube length (%), average value: 14%
